Experimental data as given in ChEMBL document CHEMBL4627302, “Design, synthesis and anticancer activities of novel dual poly(ADP-ribose) polymerase-1/histone deacetylase-1 inhibitors” (Bioorg Med Chem Lett, 2020).
Activity calls are given as the source filed them. The calls are words filed in the database; no cut-off is given here.

How the values were obtained:
[1] = biological target: T1, Poly [ADP-ribose] polymerase 1 (Homo sapiens, UniProt P09874); test: Inhibition of PARP1 (unknown origin)
Histone deacetylase 1 = Histone deacetylase 1 (Homo sapiens, UniProt Q13547); test: Inhibition of HDAC1 (unknown origin)
Sequence of Histone deacetylase 1 (Q13547 whole entry): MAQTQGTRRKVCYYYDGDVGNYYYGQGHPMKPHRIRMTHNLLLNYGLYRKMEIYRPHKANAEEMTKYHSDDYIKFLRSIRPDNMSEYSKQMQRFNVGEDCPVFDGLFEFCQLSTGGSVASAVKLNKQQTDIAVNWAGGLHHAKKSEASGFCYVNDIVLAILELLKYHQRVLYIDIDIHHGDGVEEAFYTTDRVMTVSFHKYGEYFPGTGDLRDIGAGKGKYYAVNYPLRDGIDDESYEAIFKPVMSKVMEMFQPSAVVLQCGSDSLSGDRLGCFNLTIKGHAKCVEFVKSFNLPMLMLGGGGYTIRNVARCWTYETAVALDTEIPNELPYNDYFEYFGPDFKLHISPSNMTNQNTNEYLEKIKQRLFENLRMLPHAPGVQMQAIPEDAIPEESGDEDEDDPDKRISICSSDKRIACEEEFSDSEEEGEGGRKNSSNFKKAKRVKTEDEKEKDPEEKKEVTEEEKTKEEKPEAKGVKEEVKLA

K562 = test: Antiproliferative activity against human K562 cells assessed as cell growth inhibition by MTT assay; format: functional
MCF7 = test: Antiproliferative activity against human MCF7 cells assessed as cell growth inhibition by MTT assay; format: functional
MDA-MB-231 = test: Antiproliferative activity against human MDA-MB-231 cells assessed as cell growth inhibition by MTT assay; format: functional
[2] = biological target: T1, Poly [ADP-ribose] polymerase 1; test: Inhibition of PARP1 (unknown origin) at 20 nM relative to control
[3] = biological target: T1, Poly [ADP-ribose] polymerase 1; test: Potency index, ratio of olaparib IC50 to test compound IC50 for inhibition of PARP1 (unknown origin)

T1 sequence (P09874 whole entry): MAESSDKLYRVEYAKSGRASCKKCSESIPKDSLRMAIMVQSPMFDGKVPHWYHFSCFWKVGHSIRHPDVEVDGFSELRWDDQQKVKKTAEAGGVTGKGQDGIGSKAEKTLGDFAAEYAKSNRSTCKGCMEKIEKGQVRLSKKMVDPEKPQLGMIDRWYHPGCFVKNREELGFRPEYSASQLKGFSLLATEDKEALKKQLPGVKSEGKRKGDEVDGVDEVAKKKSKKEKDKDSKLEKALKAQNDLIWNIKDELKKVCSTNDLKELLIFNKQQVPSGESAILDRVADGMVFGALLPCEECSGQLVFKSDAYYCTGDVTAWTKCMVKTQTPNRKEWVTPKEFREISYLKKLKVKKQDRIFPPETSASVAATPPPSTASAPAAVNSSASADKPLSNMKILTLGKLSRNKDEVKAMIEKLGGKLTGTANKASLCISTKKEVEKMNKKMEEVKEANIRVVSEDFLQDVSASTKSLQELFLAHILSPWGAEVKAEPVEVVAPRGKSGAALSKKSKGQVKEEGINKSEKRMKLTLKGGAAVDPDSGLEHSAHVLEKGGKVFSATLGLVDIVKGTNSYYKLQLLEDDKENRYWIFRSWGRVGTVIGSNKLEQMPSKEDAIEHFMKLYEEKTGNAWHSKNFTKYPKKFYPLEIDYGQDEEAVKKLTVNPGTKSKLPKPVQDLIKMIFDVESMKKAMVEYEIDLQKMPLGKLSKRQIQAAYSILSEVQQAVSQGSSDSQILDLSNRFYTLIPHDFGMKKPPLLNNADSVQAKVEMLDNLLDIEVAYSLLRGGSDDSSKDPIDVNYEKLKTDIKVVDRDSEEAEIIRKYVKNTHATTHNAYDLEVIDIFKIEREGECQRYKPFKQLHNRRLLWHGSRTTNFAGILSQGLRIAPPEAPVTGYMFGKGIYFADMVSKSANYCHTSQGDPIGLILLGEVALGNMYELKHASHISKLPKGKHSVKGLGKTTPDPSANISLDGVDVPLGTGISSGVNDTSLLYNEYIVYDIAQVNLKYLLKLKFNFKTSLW

| SMILES | IC50 ([1]; read-out: IC50) [µM] | IC50 (Histone deacetylase 1; read-out: IC50) [µM] | GI50 (K562) | GI50 (MCF7) | GI50 (MDA-MB-231) [µM] | inhibition [2] [%] | Ratio IC50 [3] | IC50 (Histone deacetylase 1) | IC50 [1] |
| --- | --- | --- | --- | --- | --- | --- | --- | --- | --- |
| Nc1cc(F)ccc1NC(=O)[C@H]1CC[C@H](CNC(=O)c2cc(Cc3n[nH]c(=O)c4ccccc34)ccc2F)CC1 |  | 0.89 | 6.61 µM | inactive | 49.2 | 49.7 |  |  |  |
| Nc1cc(F)ccc1NC(=O)CCCCCNC(=O)c1cc(Cc2n[nH]c(=O)c3ccccc23)ccc1F |  | 0.81 | 14.7 µM | inactive | 40.5 | 46.2 |  |  |  |
| Nc1ccc(F)cc1NC(=O)CCCCNC(=O)c1cc(Cc2n[nH]c(=O)c3ccccc23)ccc1F |  | 0.91 | inactive | inactive | 31.3 | 42.4 |  |  |  |
| Nc1ccccc1NC(=O)[C@H]1CC[C@H](CNC(=O)c2cc(Cc3n[nH]c(=O)c4ccccc34)ccc2F)CC1 |  | 0.34 | 2.92 µM | 11.1 µM | 50.5 | 41.3 |  |  |  |
| Nc1ccccc1NC(=O)c1ccc(CNC(=O)c2cc(Cc3n[nH]c(=O)c4ccccc34)ccc2F)cc1 |  | 0.14 | 0.408 µM | 1.91 µM | 59.3 | 37.4 |  |  |  |
| Nc1cc(F)ccc1NC(=O)c1ccc(CNC(=O)c2cc(Cc3n[nH]c(=O)c4ccccc34)ccc2F)cc1 |  | 0.34 | 2.21 µM | 11.5 µM | 78.7 | 22.1 |  |  |  |
| Nc1ccccc1NC(=O)CCCCNC(=O)c1cc(Cc2n[nH]c(=O)c3ccccc23)ccc1F |  | 0.74 | 62.4 µM | inactive | 61.6 | 39.4 |  |  |  |

The next compounds have a lower GI50 (MDA-MB-231) than those just listed; values first:

| IC50 ([1]; read-out: IC50) [µM] | IC50 (Histone deacetylase 1; read-out: IC50) [µM] | GI50 (K562) | GI50 (MCF7) | GI50 (MDA-MB-231) [µM] | inhibition [2] [%] | Ratio IC50 [3] | IC50 (Histone deacetylase 1) | IC50 [1] | SMILES |
| --- | --- | --- | --- | --- | --- | --- | --- | --- | --- |
| 0.00423 | 0.34 | 5.62 µM | inactive | 4.35 |  |  |  |  | Nc1ccccc1NC(=O)CCCCCNC(=O)c1cc(Cc2n[nH]c(=O)c3ccccc23)ccc1F |
|  | 0.52 | 8.13 µM | inactive | 13.9 | 65.9 |  |  |  | Nc1ccc(F)cc1NC(=O)CCCCCNC(=O)c1cc(Cc2n[nH]c(=O)c3ccccc23)ccc1F |
| 0.00194 | 0.82 | inactive | inactive | 2.31 |  | 2 |  |  | Nc1ccccc1NC(=O)C1CCN(C(=O)c2cc(Cc3n[nH]c(=O)c4ccccc34)ccc2F)CC1 |
|  |  | inactive | 13.2 µM | 4.23 |  |  | Not Active |  | O=C(c1cc(Cc2n[nH]c(=O)c3ccccc23)ccc1F)N1CCN(C(=O)C2CC2)CC1 [OLAPARIB] |
| 0.00258 | 0.94 | inactive | inactive | 4.49 |  |  |  |  | Nc1cc(F)ccc1NC(=O)C1CCN(C(=O)c2cc(Cc3n[nH]c(=O)c4ccccc34)ccc2F)CC1 |
| 0.00181 | 0.95 | inactive | inactive | 1.03 |  |  |  |  | Nc1ccc(F)cc1NC(=O)C1CCN(C(=O)c2cc(Cc3n[nH]c(=O)c4ccccc34)ccc2F)CC1 |
|  | 1 |  | inactive | 25.4 | 64.7 |  |  |  | Nc1cc(F)ccc1NC(=O)CCCCNC(=O)c1cc(Cc2n[nH]c(=O)c3ccccc23)ccc1F |
|  |  | 0.45 µM | 1.43 µM | 2.88 |  |  |  | Not Active | Nc1ccc(F)cc1NC(=O)c1ccc(CNC(=O)/C=C/c2cccnc2)cc1 |
